In patent publication US20200157048A1, “(2E,4E)-5-PHENYL-PENTA-2,4-DIEN-1-ONE DERIVATIVE” (BIOWAY., INC, priority 2018, published 2020):
Entries after “also recorded” stand apart in the source; their conditions may differ.

Experiments:
Fgf21 mRNA = test: qRT-PCR Fgf21 mRNA level in steatosis-induced Huh-7 cells; assay type: cell-based, Human; details: steatosis-induced (OA/PA) Huh-7 cells; 10 μM; 24 hours
Protocol: In Experimental Example 5, the Huh-7 cells were plated in 6 wells at 4×10^5 cells/mL and incubated under an atmosphere containing 5% CO2 at 37° C.
One day later, the cell density approached about 80 to 90%. The medium was changed to an FBS-free RPMI1640 medium, and incubated under an atmosphere containing 5% CO2 at 37° C. for 24 hours.
Huh-7 cells of each well, excluding control cells, were pretreated with an OA/PA mixture for one hour to induce steatosis. The control cells were pretreated with 1% FA-free BSA.
Each well was treated with 10 μM of a test compound, and then the cells were incubated for 24 hours. The control cells and OA/PA-treated cells were treated with DMSO. Cells of a positive control were treated with 10 μM of resveratrol, 10 μM of piperine, and 10 μM of YU2014. The medium was entirely aspirated, and the cells were washed with PBS (phosphate buffered saline, Corning, Manassas, Va., USA) two times.
Total RNA was extracted using a RNeasy RNA isolation kit (Qiagen, Hilden, Germany).
10 μL of β-mercaptoethanol (Sigma-Aldrich) per 1 mL of lysis buffer was added, thereby preparing an RNA lysis buffer. […]
An RNA concentration was measured at O.D. 260 nm using a nanophotometer N60 (Implen, Munich, Germany). The concentration and purity of RNA were measured at O.D. 260/280 nm and calculated as a ratio. […]
Quantitative analyses for the genes in Table 3 were performed.

CK2 = target: T1, CK2 (Homo sapiens, UniProt P68400); test: CK2 kinase assay (CycLex CK2 kinase assay/inhibitor screening kit); assay type: biochemical; details: 20 μM
T1 construct: purchased New England Biolabs (Ipswich, Mass., USA)
Protocol: All materials were provided from a CycLex CK2 kinase assay/inhibitor screening kit (Medical and Biological Laboratories CO., LTD, Nagoya, Japan).
All specimens were prepared in triplicate.
10 μL of a diluted sample was added to a 96-well plate placed on ice.
Three wells having 10 μL of a CK2α positive control (2 unit/μL) were included as a positive control in each analysis method. CK2α was purchased from New England Biolabs (Ipswich, Mass., USA).
A phosphorylation reaction was initiated by adding 90 μL of a phosphorylation reaction buffer to each well, and the 96-well plate was covered with a plate cover. The plate was incubated at 30° C. for 30 minutes. Each well was washed with a washing buffer five times, and it was confirmed whether each well was completely filled. With gentle tapping, a residual washing solution was removed.
100 μL of HRP-conjugated detection antibodies were added to each well, and the plate was covered with a plate cover. While the plate was incubated at room temperature (25 to 30° C.) for 30 minutes, the remaining HRP-conjugated detection antibodies after use were removed. Each well was washed five times, and the residual washing buffer was removed with gentle tapping. […]
Absorbance at dual wavelengths of 450/540 nm was measured for each well using Cytation 5. Data was analyzed.

T1 sequence (P68400 whole entry): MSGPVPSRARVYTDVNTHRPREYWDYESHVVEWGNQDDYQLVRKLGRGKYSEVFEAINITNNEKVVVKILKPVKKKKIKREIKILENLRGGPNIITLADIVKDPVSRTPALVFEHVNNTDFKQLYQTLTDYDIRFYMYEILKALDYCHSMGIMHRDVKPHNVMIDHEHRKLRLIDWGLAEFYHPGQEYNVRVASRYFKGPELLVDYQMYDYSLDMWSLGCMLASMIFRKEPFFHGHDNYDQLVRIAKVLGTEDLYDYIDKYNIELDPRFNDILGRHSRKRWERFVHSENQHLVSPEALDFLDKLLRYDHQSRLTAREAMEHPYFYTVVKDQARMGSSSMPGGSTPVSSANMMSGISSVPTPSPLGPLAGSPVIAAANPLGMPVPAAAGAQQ
T1 sequence (P67870 whole entry partner): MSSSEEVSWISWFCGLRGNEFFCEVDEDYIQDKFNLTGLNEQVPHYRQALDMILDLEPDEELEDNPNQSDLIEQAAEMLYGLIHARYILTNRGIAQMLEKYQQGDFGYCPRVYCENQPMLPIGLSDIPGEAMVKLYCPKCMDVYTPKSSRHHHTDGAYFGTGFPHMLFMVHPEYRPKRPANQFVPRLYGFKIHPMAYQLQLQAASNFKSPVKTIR

CSc1ccc(/C=C/C=C/C(=O)N2CCCCC2)cc1 [YU2014, (2E,4E)-5-(4-(methylthio)phenyl)-1-(piperidine-1-yl)penta-2,4-dien-1-one]
Fgf21 mRNA level (FIG. 12) (Fgf21 mRNA): almost no increase; also recorded: no effect
CK2 activity (FIG. 21) (CK2): did not have a CK2 activity reducing effect
